Assay results from PubChem BioAssay (NCI).
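96-well plates; 48 h exposure; 5 concentrations. Endpoints by linear interpolation between flanking doses. Not reached: highest tested concentration assigned. TGI: total growth inhibition.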

Columns and labels:
Experiment in all cases: NCI anticancer screen, dose series, 48 h
[1] = test system: SNB-19 CNS
[2] = test system: HCT-15 colon
[3] = test system: SN12C renal
[4] = test system: M14 melanoma
[5] = test system: UO-31 renal
[6] = test system: SF-539 CNS
[7] = test system: SR leukemia
[8] = test system: MDA-MB-231 breast
[9] = test system: TK-10 renal
[10] = test system: SK-MEL-2 melanoma
[11] = test system: SK-MEL-5 melanoma
[12] = test system: HOP-62 NSCLC
[13] = test system: MCF7 breast
[14] = test system: RPMI-8226 leukemia
[15] = test system: T-47D breast
[16] = test system: BT-549 breast
[17] = test system: SF-295 CNS
[18] = test system: COLO 205 colon
[19] = test system: NCI-H226 lung
[20] = test system: NCI-H522 lung
[21] = test system: A549 NSCLC
[22] = test system: MDA-N
[23] = test system: LOX IMVI melanoma
[24] = test system: SF-268 CNS
[25] = test system: HS 578T breast
[26] = test system: OVCAR-8 ovarian
[27] = test system: NCI-H460 lung
[28] = test system: OVCAR-3 ovarian
[29] = test system: HT29 colon
[30] = test system: DU-145 prostate
[31] = test system: HCC-2998 colon
[32] = test system: EKVX NSCLC
[33] = test system: ACHN renal
[34] = test system: MDA-MB-435
[35] = test system: NCI/ADR-RES ovarian
[36] = test system: OVCAR-4 ovarian
[37] = test system: SK-MEL-28 melanoma
[38] = test system: A498 renal
[39] = test system: SK-OV-3 ovarian
[40] = test system: U251 CNS
[41] = test system: NCI-H23 lung
[42] = test system: RXF 393 renal
[43] = test system: SNB-75 CNS
[44] = test system: KM12 colon
[45] = test system: PC-3 prostate
[46] = test system: IGROV1 ovarian
[47] = test system: SW-620 colon
[48] = test system: MALME-3M melanoma
[49] = test system: UACC-62 melanoma
[50] = test system: 786-0 renal
[51] = test system: OVCAR-5 ovarian
[52] = test system: HL-60(TB) leukemia
[53] = test system: CCRF-CEM leukemia
[54] = test system: MOLT-4 leukemia
[55] = test system: K-562 leukemia
[56] = test system: HCT-116 colon
[57] = test system: CAKI-1 renal
[58] = test system: UACC-257 melanoma
[59] = test system: DMS 273 small cell lung
[60] = test system: XF 498 CNS
[61] = test system: DMS 114 small cell lung
[62] = test system: LXFL 529 NSCLC
[63] = test system: M19-MEL melanoma
[64] = test system: DLD-1 colon
[65] = test system: KM20L2 colon

Cc1cc2c(c(S(=O)(=O)c3ccccc3[N+](=O)[O-])c1)NCCC2
TGI [1]: > 100 µM | TGI [2]: > 100 µM | TGI [3]: > 100 µM | TGI [4]: > 100 µM | TGI [5]: > 100 µM | TGI [6]: > 100 µM | TGI [7]: > 100 µM | TGI [8]: > 100 µM | TGI [9]: > 100 µM | TGI [10]: > 100 µM | TGI [11]: > 100 µM | TGI [12]: > 100 µM | TGI [13]: > 100 µM | TGI [14]: > 100 µM | TGI [15]: 40.2 µM | TGI [16]: > 100 µM | TGI [17]: > 100 µM | TGI [18]: > 100 µM | TGI [19]: > 100 µM | TGI [20]: > 100 µM | TGI [21]: > 100 µM | TGI [22]: > 100 µM | TGI [23]: > 100 µM | TGI [24]: > 100 µM | TGI [25]: > 100 µM | TGI [26]: > 100 µM | TGI [27]: > 100 µM | TGI [28]: > 100 µM | TGI [29]: > 100 µM | TGI [30]: > 100 µM | TGI [31]: > 100 µM | TGI [32]: > 100 µM | TGI [33]: > 100 µM | TGI [34]: > 100 µM | TGI [35]: > 100 µM | TGI [36]: > 100 µM | TGI [37]: > 100 µM | TGI [38]: > 100 µM | TGI [39]: > 100 µM | TGI [40]: > 100 µM | TGI [41]: > 100 µM | TGI [42]: > 100 µM | TGI [43]: > 100 µM | TGI [44]: > 100 µM | TGI [45]: > 100 µM | TGI [46]: > 100 µM | TGI [47]: > 100 µM | TGI [48]: > 100 µM | TGI [49]: > 100 µM | TGI [50]: > 100 µM | TGI [51]: > 100 µM | TGI [52]: > 100 µM

NC(=O)c1cccc(OCC(O)CO)c1 (stereo not given)
TGI [1]: > 100 µM | TGI [53]: > 100 µM | TGI [2]: > 100 µM | TGI [3]: > 100 µM | TGI [4]: > 100 µM | TGI [5]: > 100 µM | TGI [54]: > 100 µM | TGI [6]: > 100 µM | TGI [7]: > 100 µM | TGI [8]: > 100 µM | TGI [9]: > 100 µM | TGI [10]: > 100 µM | TGI [11]: > 100 µM | TGI [12]: > 100 µM | TGI [13]: > 100 µM | TGI [15]: > 100 µM | TGI [16]: > 100 µM | TGI [17]: > 100 µM | TGI [18]: > 100 µM | TGI [55]: > 100 µM | TGI [19]: > 100 µM | TGI [20]: > 100 µM | TGI [56]: > 100 µM | TGI [21]: > 100 µM | TGI [22]: > 100 µM | TGI [24]: > 100 µM | TGI [25]: > 100 µM | TGI [26]: > 100 µM | TGI [27]: > 100 µM | TGI [28]: > 100 µM | TGI [29]: > 100 µM | TGI [30]: > 100 µM | TGI [31]: > 100 µM | TGI [32]: > 100 µM | TGI [33]: > 100 µM | TGI [35]: > 100 µM | TGI [36]: > 100 µM | TGI [37]: > 100 µM | TGI [57]: > 100 µM | TGI [38]: > 100 µM | TGI [58]: > 100 µM | TGI [39]: > 100 µM | TGI [40]: > 100 µM | TGI [41]: > 100 µM | TGI [43]: > 100 µM | TGI [44]: > 100 µM | TGI [45]: > 100 µM | TGI [46]: > 100 µM | TGI [47]: > 100 µM | TGI [49]: > 100 µM | TGI [50]: > 100 µM | TGI [51]: > 100 µM | TGI [52]: > 100 µM

CCOC(=O)C1=C(C)N(NC(N)=O)C2(N)N(NC(N)=O)C(C)=C(C(=O)OCC)C12C(=O)OCC (stereo not given)
TGI [1]: > 100 µM | TGI [2]: > 100 µM | TGI [3]: > 100 µM | TGI [4]: > 100 µM | TGI [5]: > 100 µM | TGI [54]: > 100 µM | TGI [6]: > 100 µM | TGI [59]: > 100 µM | TGI [7]: > 100 µM | TGI [10]: > 100 µM | TGI [11]: > 100 µM | TGI [12]: > 100 µM | TGI [60]: > 100 µM | TGI [14]: > 100 µM | TGI [17]: > 100 µM | TGI [55]: > 100 µM | TGI [19]: > 100 µM | TGI [20]: > 100 µM | TGI [56]: > 100 µM | TGI [21]: > 100 µM | TGI [23]: > 100 µM | TGI [24]: > 100 µM | TGI [26]: > 100 µM | TGI [61]: > 100 µM | TGI [27]: > 100 µM | TGI [28]: > 100 µM | TGI [29]: > 100 µM | TGI [31]: > 100 µM | TGI [32]: > 100 µM | TGI [33]: > 100 µM | TGI [62]: > 100 µM | TGI [36]: > 100 µM | TGI [37]: > 100 µM | TGI [63]: > 100 µM | TGI [57]: > 100 µM | TGI [38]: > 100 µM | TGI [58]: > 100 µM | TGI [39]: > 100 µM | TGI [40]: > 100 µM | TGI [42]: > 100 µM | TGI [43]: > 100 µM | TGI [44]: > 100 µM | TGI [64]: > 100 µM | TGI [46]: > 100 µM | TGI [47]: > 100 µM | TGI [48]: > 100 µM | TGI [49]: > 100 µM | TGI [50]: > 100 µM | TGI [51]: > 100 µM | TGI [65]: > 100 µM
